Series [1] has as its system subjects with moderate to severe hidradenitis suppurativa (Hurley stage II or III). The experiment in a line: Phase 2 clinical study (NCT03852472, AURORA): HiSCR, AN count, DF count and IHS4 at Week 12. The series is classed as in vivo, human. The conditions noted are these: for HiSCR response rate % (n/N): biomarker sample subset of AURORA (n = 68 HS patients), placebo 25. As for the experimental part: The study was a randomized, double-blind, placebo-controlled, three group Phase 2 trial in 435 subjects with moderate to severe hidradenitis suppurativa (Hurley stage II or III). Subjects were randomized 1:1:1 to a treatment of 10 mg avacopan twice daily, 30 mg avacopan twice daily or a placebo twice daily for 12 weeks. Following the 12 weeks double-blind treatment period, subjects on placebo were re-randomized 1:1 to receive 10 mg or 30 mg avacopan twice daily for additional 24 weeks. Subjects treated with avacopan continued to receive the same dose (either 10 mg or 30 mg twice daily) for additional 24 weeks. Subjects were on study treatment for 36 weeks and were followed for 8 weeks for assessment of safety and efficacy. The primary efficacy analysis was at 12 weeks. The primary efficacy endpoint assessed by the proportion of subjects achieving Hidradenitis Suppurativa Clinical Response (HiSCR) at Week 12. • At least 18 years of age • Clinical diagnosis of HS (Hurley Stage II or III), confirmed by a dermatologist, for at least 6 months prior to Screening • HS lesions are present in at least 2 distinct anatomic areas • Inadequate or loss of response to a systemic course of antibiotics typically of at least 90 days • Must have at least 5 inflammatory nodules or abscesses at screening • Use adequate birth control for subject and partners of child bearing potential • Willing and able to give written Informed Consent • Pregnant or breast-feeding • Any other skin disease that may interfere with the assessment of HS • Rapidly progressive, expanding HS within 30 days prior to screening • More than 20 draining fistulae at screening • Any anti-TNF-α treatment for HS or for other conditions prior to Day 1 visit will be prohibited. Exception: Subjects who were previously treated with an anti-TNF-α drug and discontinued treatment >12 weeks prior to Day 1 visit are allowed for enrollment • Systemic antibiotics are generally excluded • Topical antibiotics use within 14 days prior to Day 1 is excluded • Have started a topical prescription medicine for HS within 14 days prior to screening • A systemic medicine for HS, including biologics and other systemic therapies • Have received within 14 days prior to Day 1 visit or is expected to require oral or transdermal opioid analgesics (except for tramadol) for any reason The proportion of subjects achieving HiSCR at Week 12 is calculated as those subjects having at least a 50% reduction from baseline in abscess and inflammatory nodule (AN) count, with no increase in abscess count and no increase in draining fistula count number at Week 12 divided by the total number of subjects with non-missing value in each treatment group. p-values are obtained from a Cochran-Mantel-Haenszel (CMH) test stratified by stratification factors Hurley Stage (Stage II vs. III), and anti-TNF drug use (Treatment naïve vs. Previous treatment). Plasma samples were collected at baseline prior to the start of treatment from 68 enrolled HS patients in phase II AURORA study (NCT03852472) and from 20 independent age and gender matched healthy controls.

The test system of series [2] is HS patients. The series is described as follows: Phase 2 clinical study (NCT03852472): safety and tolerability. The series is classed as in vivo, human. As for the experimental part: The study was a randomized, double-blind, placebo-controlled, three group Phase 2 trial in 435 subjects with moderate to severe hidradenitis suppurativa (Hurley stage II or III). Subjects were randomized 1:1:1 to a treatment of 10 mg avacopan twice daily, 30 mg avacopan twice daily or a placebo twice daily for 12 weeks. Following the 12 weeks double-blind treatment period, subjects on placebo were re-randomized 1:1 to receive 10 mg or 30 mg avacopan twice daily for additional 24 weeks. Subjects treated with avacopan continued to receive the same dose (either 10 mg or 30 mg twice daily) for additional 24 weeks.
Subjects were on study treatment for 36 weeks and were followed for 8 weeks for assessment of safety and efficacy. The primary efficacy analysis was at 12 weeks.

As for `Cc1ccc(NC(=O)[C@H]2CCCN(C(=O)c3c(C)cccc3F)[C@H]2c2ccc(NC3CCCC3)cc2)cc1C(F)(F)F` [avacopan], the “% Difference (avacopan − placebo) in HiSCR” value is −13.9% in series [1] (Hurley Stage II, Week 12, avacopan 10 mg BID); −4.3% in series [1] (Hurley Stage II, Week 12, avacopan 30 mg BID); 1.8% in series [1] (Hurley Stage III, Week 12, avacopan 10 mg BID); 20.3% in series [1] (Hurley Stage III, Week 12, avacopan 30 mg BID). The “% Adjusted difference (avacopan − placebo) in HiSCR” value in series [1] (Hurley Stage II, Week 12, avacopan 10 mg BID, 95% CI (−26.8, −0.2)) is reported as −13.8%; in series [1] (Hurley Stage II, Week 12, avacopan 30 mg BID, 95% CI (−18.1, 9.6)) it was −4.3%; in series [1] (Hurley Stage III, Week 12, avacopan 10 mg BID, 95% CI (−15.3, 18.3)) it was 1.8%; in series [1] (Hurley Stage III, Week 12, avacopan 30 mg BID, 95% CI (1.6, 37.9)), 20.8%. Also, the “HiSCR Responder Rate, n/N” value in series [1] (Hurley Stage II, Week 12, avacopan 10 mg BID, placebo 35.3, p=0.0473) was 21.4%; in series [1] (Hurley Stage II, Week 12, avacopan 10 mg BID, placebo 35.3, p=0.0473, listed as Avacopan) it was 18/84 (21.4) %; in series [1] (Hurley Stage II, Week 12, avacopan 30 mg BID, placebo 35.3, p=0.5469) it was 27/87 (31.0) %; in series [1] (Hurley Stage III (ITT1), Week 12, avacopan 10 mg BID, placebo 22.2), 24.0%; in series [1] (Hurley Stage III (ITT1), Week 12, avacopan 10 mg BID, placebo 22.2, listed as Avacopan), 12/50 (24) %; in series [1] (Hurley Stage III (ITT1), Week 12, avacopan 30 mg BID, placebo 22.2, p=0.0349 (text)), 42.6%. Also, in series [1] (Hurley Stage III (ITT1), Week 12, avacopan 30 mg BID, placebo 22.2, p=0.0349 (text), listed as Avacopan), the “HiSCR Responder Rate, n/N” value was 20/47 (42.6) %. Further, the “IHS4, AN, draining fistula and abscess count” value in series [1] (Hurley Stage III patients, week 12) is “consistent reduction”. Besides, the “percentage reduction in IHS4 Score” value in series [1] (Hurley Stage III, Week 12, avacopan 30 mg BID, placebo 20.7%) is 36.9%. Also, in series [1] (Hurley Stage III, Week 12, avacopan 30 mg BID, placebo 23.7%), the “percentage reduction in AN count” value is 40.8%. The “percentage reduction in DF count” value in series [1] (Hurley Stage III, Week 12, avacopan 30 mg BID, placebo 24.0%) came out at 45.2%. Also, the “HiSCR response rate % (n/N)” value in series [1] (avacopan 10 mg) is 29.2 (7/24) %; in series [1] (avacopan 30 mg), 54.2 (13/24) %. The “improvement in HiSCR vs. placebo” value in series [1] (pre-specified Hurley Stage III (severe HS) patients at 12 weeks) is on record as “statistically significant dose-dependent improvement”. The safety and tolerability result in series [2] is “safe and well tolerated”.

For the origin of these results see US20240310388A1, “DIAGNOSTIC METHODS FOR HIDRADENITIS SUPPURATIVA” (AMGEN INC., priority 2023, published 2024).
